Values after ≈ are worked out from the molar mass of the structure shown.

Common to all, as to type: functional
For assay [1], the system named is Staphylococcus aureus. The assay can be described thus: Antimicrobial activity against Staphylococcus aureus ATCC 6538 assessed as inhibition of bacterial growth by microtiter plate reader assay.
Assay [2] relates to Staphylococcus aureus. Kind of assay: Antimicrobial activity against methicillin-resistant Staphylococcus aureus 11646 assessed as inhibition of bacterial growth by microtiter plate reader assay.
For assay [3], the system named is Enterococcus faecium. Kind of assay: Antimicrobial activity against vancomycin-sensitive Enterococcus faecium 160119481 assessed as inhibition of bacterial growth by microtiter plate reader assay.
In assay [4] the test system is Enterococcus faecium. The assay can be described thus: Antimicrobial activity against vancomycin-resistant Enterococcus faecium 151458137 assessed as inhibition of bacterial growth by microtiter plate reader assay.
Another assay concerns Escherichia coli. The assay can be described thus: Antimicrobial activity against Escherichia coli ATCC 25922 assessed as inhibition of bacterial growth by microtiter plate reader assay.

By MIC is commonly meant the least concentration at which growth counts as inhibited. Turning to `CC[C@H](C)[C@@H]1NC(=O)[C@H](CO)NC(=O)[C@H](CC(C)C)NC(=O)CNC(=O)[C@H](CC(C)C)N(C)C(=O)[C@H]([C@@H](C)CC)NC(=O)[C@H]([C@@H](C)O)N(C)C(=O)[C@H](Cc2ccccc2)NC(=O)CNC(=O)[C@@H](CC(C)C)N(C)C1=O`, the MIC was 8 µg/mL (≈ 7.57 µM) with Staphylococcus aureus [1]; > 128 µg/mL with Staphylococcus aureus [2]; 8 µg/mL (≈ 7.57 µM) in the assay on Enterococcus faecium [3]; 8 µg/mL (≈ 7.57 µM) with Enterococcus faecium [4]; > 128 µg/mL in the assay on Escherichia coli.

On to `CC[C@H](C)[C@@H]1NC(=O)CNC(=O)[C@H](CC(C)C)N(C)C(=O)[C@H]([C@@H](C)CC)NC(=O)[C@H]([C@@H](C)O)N(C)C(=O)[C@H](Cc2ccccc2)NC(=O)CNC(=O)[C@@H](CC(C)C)N(C)C(=O)[C@H](CC(C)C)NC(=O)[C@H](CO)NC1=O`, for which the MIC with Staphylococcus aureus [1] was 8 µg/mL (≈ 7.57 µM); in the assay on Staphylococcus aureus [2], > 128 µg/mL; with Enterococcus faecium [3], 8 µg/mL (≈ 7.57 µM); in the assay on Enterococcus faecium [4], 8 µg/mL (≈ 7.57 µM); with Escherichia coli it was > 128 µg/mL.

For `CC[C@H](C)[C@@H]1NC(=O)CNC(=O)[C@H](CC(C)C)N(C)C(=O)[C@H]([C@@H](C)CC)NC(=O)[C@H]([C@@H](C)O)N(C)C(=O)[C@H](Cc2ccccc2)NC(=O)CNC(=O)[C@@H](CC(C)C)N(C)C(=O)[C@H]([C@@H](C)CC)NC(=O)[C@H](CO)NC1=O`, the minimal inhibitory concentration (MIC) is 8 µg/mL (≈ 7.57 µM) in the assay with Staphylococcus aureus [1]; > 128 µg/mL in the assay on Staphylococcus aureus [2]; 8 µg/mL (≈ 7.57 µM) in the assay with Enterococcus faecium [3]; 8 µg/mL (≈ 7.57 µM) in the assay on Enterococcus faecium [4]; > 128 µg/mL in the assay with Escherichia coli.

`CC[C@H](C)[C@@H]1NC(=O)[C@H]([C@@H](C)O)N(C)C(=O)[C@H](Cc2ccccc2)NC(=O)CNC(=O)[C@@H](CC(C)C)N(C)C(=O)[C@H](CC(C)C)NC(=O)[C@H](CO)NC(=O)[C@H](CC(C)C)NC(=O)CNC(=O)[C@H](CC(C)C)N(C)C1=O`: the MIC in the assay on Staphylococcus aureus [1] is 8 µg/mL (≈ 7.57 µM); with Staphylococcus aureus [2], > 128 µg/mL; with Enterococcus faecium [3] it was 8 µg/mL (≈ 7.57 µM); in the assay with Enterococcus faecium [4], 8 µg/mL (≈ 7.57 µM); in the assay with Escherichia coli, > 128 µg/mL.

Regarding `NC[C@H]1O[C@H](O[C@H]2[C@H](O)[C@@H](O[C@H]3O[C@H](CO)[C@@H](O)[C@H](N)[C@H]3O)[C@H](N)C[C@@H]2N)[C@H](N)[C@@H](O)[C@@H]1O` [BEKANAMYCIN], the minimal inhibitory concentration (MIC) with Escherichia coli amounted to 32 µg/mL (≈ 66.2 µM).
